In patent US20150065440A1 (Progen Pharmaceuticals Limited, priority 2007, published 2015):

Key:
[1] = system: HSV-2; experiment: Anti-HSV screening assay (viral plaques), HSV-2; format: cell-based; conditions: 100 μg/mL, viral plaques relative to mock treated controls
Description: (§1) African green monkey kidney (GMK AH1) cells^46 were cultured in Eagle's minimum essential medium (EMEM) supplemented with 2% calf serum, 0.05% Primaton RL substance (Kraft Inc., Norwich, USA) and antibiotics. Human epidermoid carcinoma (HEp-2) cells were cultured in Dulbecco's modified EMEM (DMEM) supplemented with 10% fetal calf serum and antibiotics. […] The RSV strain A-2^50 was used. The RSV stock was prepared as described by Hallak et al.^51 and stored at −70° C. in the presence of 40% sucrose^52.
(§2) The viral infectivity (the plaque number-reduction) assay and the plaque size-reduction assay were carried out as described previously^17. […] Subsequently, the cells were washed with 2 mL of EMEM and overlaid with 1% methylcellulose solution in EMEM. The plaques were visualized by staining with crystal violet solution after 2 (HSV-2) or 3 (HSV-1) days of incubation at 37° C. […] When the compounds were screened for anti-HSV or anti-RSV activity, mixtures of 200 PFU of the virus and the test compound (100 μg/mL) in serum-free EMEM were incubated for 10 min at room temperature before addition to cells and during the entire period of viral infection of cells and the development of viral plaques. In the plaque size-reduction assay, the compounds were added to cells (in methylcellulose overlay medium) after 2 h period of virus infection of cells in the absence of the inhibitor. After 2-3 days of incubation at 37° C., the viral plaques were visualized by staining the cells with 1% solution of crystal violet. For each compound tested, the images of twenty neighboring plaques were captured using a Leica DC300 digital camera attached to a Leitz-Wetzlar Diavert microscope. The area of each plaque was determined using IM500 image software (Leica). Similar protocols were used for RSV, except that the assays were performed in HEp-2 cells and DMEM supplemented with 2% heat-inactivated fetal calf serum was used instead of EMEM.

[2] = system: HSV-2; experiment: Virus inactivation assay, HSV-2; format: cell-based; conditions: for Virus-inactivating activity: viral plaques with compound-treated virus relative to mock-treated controls: 15 min at 37° C.
Description: (§3) Approximately 10^5 plaque-forming units of HSV-1 KOS321 or HSV-2 333 stain and specific concentrations of the test compound in 200 μL of serum-free EMEM were mixed and incubated at 37° C. for 15 min. The mixtures were diluted to the non-inhibitory concentrations of the test compound, and then subjected to the infectious titer determination as described under the viral plaque number-reduction assay. In case of RSV, the assay was carried out in similar manner using DMEM supplemented with 2% heat-inactivated fetal calf serum instead of EMEM. To evaluate the effect of a low pH value or the presence of cervical secretions; the virus (HSV-2 333) and compounds were diluted in a low pH buffer (4.5) or cervical secretions were added to the compound dilutions before mixing with the virus (HSV-2 333). The cervical secretions were prepared from cervical swabs generated from 3 different individuals. The swabs were rinsed with distilled water and centrifuged at 5000×g for 10 min. The supernatant was kept at −20° C. In the case of RSV, the assay was carried out in a similar manner using DMEM supplemented with 2% heat-inactivated fetal calf serum instead of EMEM.

[3] = system: RSV; experiment: Virus inactivation assay, RSV; format: cell-based; conditions: 15 min at 37° C.
Description: as §3

[4] = system: HEp-2 cells; experiment: Cytotoxicity assay, HEp-2; format: cell-based, Human; conditions: cell viability reduced by 50%
[5] = system: HSV-1; experiment: Virus inactivation assay, HSV-1; format: cell-based; conditions: 15 min at 37° C.
Description: as §3

[6] = system: HSV-1; experiment: Anti-HSV screening assay (viral plaques), HSV-1; format: cell-based; conditions: 100 μg/mL, viral plaques relative to mock treated controls
Description: as §1, §2

[7] = system: rat aortic tissue; experiment: Ex vivo angiogenic sprout assay (rat aortic angiogenesis assay); format: cell-based, Sprague Dawley rats
Description: Explants from rat aortas were prepared by a modification of protocols previously described^42-54. In this model, the rat aortic endothelium exposed to a three dimensional matrix of ECM-derived proteins (Matrigel™), switches to a microvascular phenotype, generating branching networks of microvessels.
Briefly, thoracic aortas were excised from 2- to 4-month old Sprague Dawley rats and trimmed of remaining fat and connective tissue. Great care was taken at every stage to reduce physical damage of the aorta. Tissue was transferred to complete EBM-2 media (Cambrex) containing 2% FCS and all Singlequots™ (Cambrex) reagents except for heparin. Meanwhile, Matrigel™ (BD Biosciences) was allowed to cool on ice and once in a liquid form, 180 μL was pipetted into 48-well tissue culture plates (Nunc). The plates were incubated at 37° C. for 30 min to allow Matrigel™ to solidify.
Aortas were prepared by cutting 1 mm ring sections and then being bisected. Aortic segments were then carefully placed on top on the Matrigel™ in the centre of each well and once orientated as required, 60 μL of extra Matrigel™ was placed on top and the plate was returned to the incubator for a further 20 min. Each well was then supplemented with 1.0 mL media in the absence (control) or presence of test compounds usually at two concentrations within the range of 1-50 μM, depending on the particular compound/experiment. Cultures were replenished as appropriate every 48 h and scoring of microvessels was carried out at various timepoints up to 8-10 days. The extent of microvessel sprouting was determined by employing a scoring system from 0-5, where 0=no microvessels to 5=diffuse angiogenesis as previously described^45. Sprouting vessels were photographed using the 4× objective with an Olympus C-7070 camera and an adaptor for the eyepiece.
In some instances, to determine the potential toxicity of compounds in this assay, the viability of the tissue was assessed by withdrawing the compound/media from the culture on day 6 or 7 and adding complete media with VEGF (typically 10 ng/mL) for up to an additional 7 days. In the absence of toxicity, the viable tissue should sprout microvessels in response to the exogenous growth factor.
The inhibitory effect of compounds of the present invention on angiogenesis was assayed using the angiogenic sprout/microvessel formation (rat aortic) assay described above. Embedding of the rat aortic tissue in Matrigel™ in the absence of any inhibitor (control) yielded extensive angiogenic sprouting (as a score of 5 indicates diffuse angiogenesis) as illustrated by FIG. 1.

| SMILES | Residual infectivity (%) HSV-2 [1] | Virus-inactivating activity: viral plaques with compound-treated virus relative to mock-treated controls ([2]; HSV-2, 1 μg/ml) | Virus-inactivating activity: viral plaques with compound-treated virus relative to mock-treated controls ([2]; HSV-2, 10 μg/ml) | Virus-inactivating activity: viral plaques with compound-treated virus relative to mock-treated controls ([2]; HSV-2, 100 μg/ml) | Virus-inactivating activity: viral plaques with compound-treated virus relative to mock-treated controls ([3]; 4 μg/ml) | Virus-inactivating activity: viral plaques with compound-treated virus relative to mock-treated controls ([3]; 20 μg/ml) | Virus-inactivating activity: viral plaques with compound-treated virus relative to mock-treated controls ([3]; 100 μg/ml) | Cytotoxicity CC50 HEp-2 [4] | Virus-inactivating activity: viral plaques with compound-treated virus relative to mock-treated controls ([5]; HSV-1, 1 μg/ml) | Virus-inactivating activity: viral plaques with compound-treated virus relative to mock-treated controls ([5]; HSV-1, 10 μg/ml) | Virus-inactivating activity: viral plaques with compound-treated virus relative to mock-treated controls ([5]; HSV-1, 100 μg/ml) | Residual infectivity (%) HSV-1 [6] | Virus-inactivating activity in the presence of human cervical secretions: viral plaques relative to mock-treated controls ([2]; HSV-2, cervical secretions diluted 1:2.2, 1 μg/ml) | Virus-inactivating activity in the presence of human cervical secretions: viral plaques relative to mock-treated controls ([2]; HSV-2, cervical secretions diluted 1:2.2, 10 μg/ml) | Virus-inactivating activity in the presence of human cervical secretions: viral plaques relative to mock-treated controls ([2]; HSV-2, cervical secretions diluted 1:2.2, 100 μg/ml) | Virus-inactivating activity at low pH: viral plaques relative to mock-treated controls ([2]; HSV-2, pH 4.5, 1 μg/ml) | Virus-inactivating activity at low pH: viral plaques relative to mock-treated controls ([2]; HSV-2, pH 4.5, 10 μg/ml) | Virus-inactivating activity at low pH: viral plaques relative to mock-treated controls ([2]; HSV-2, pH 4.5, 100 μg/ml) | % Inhibition of Angiogenesis (10 μM) ([7]; 10 μM) | inhibition at 10 µM ([7]; Rattus norvegicus) |
| --- | --- | --- | --- | --- | --- | --- | --- | --- | --- | --- | --- | --- | --- | --- | --- | --- | --- | --- | --- | --- |
| CCCCCCCCCCCCOC1OC(COS(=O)(=O)O)C(OS(=O)(=O)O)C(OS(=O)(=O)O)C1OC1OC(COS(=O)(=O)O)C(OS(=O)(=O)O)C(OC2OC(COS(=O)(=O)O)C(OS(=O)(=O)O)C(OC3OC(COS(=O)(=O)O)C(OS(=O)(=O)O)C(OC4OC(COS(=O)(=O)O)C(OS(=O)(=O)O)C(OS(=O)(=O)O)C4OS(=O)(=O)O)C3OS(=O)(=O)O)C2OS(=O)(=O)O)C1OS(=O)(=O)O [Compound 4, Dodecyl 2,3,4,6-tetra-O-sodium sulfonato-α-D-mannopyranosyl-(1→3)-2,4,6-tri-O-sodium sulfonato-α-D-mannopyranosyl-(1→3)-2,4,6-tri-O-sodium sulfonato-α-D-mannopyranosyl-(1→3)-2,4,6-tri-O-sodium sulfonato-α-D-mannopyranosyl-(1→2)-3,4,6-tri-O-sodium sulfonato-α-D-mannopyranoside] | 0.7% | 98.6% | 97.5% | 68.1% | 85.2% | 82.2% | 47.3% | >400 µg/mL | 83.9% | 79.4% | 83.8% | 2% |  |  |  |  |  |  |  |  |
| CC(C)CCCC(C)C1CCC2C3CCC4CC(OC5OC(COS(=O)(=O)O)C(OS(=O)(=O)O)C(OS(=O)(=O)O)C5OC5OC(COS(=O)(=O)O)C(OS(=O)(=O)O)C(OC6OC(COS(=O)(=O)O)C(OS(=O)(=O)O)C(OC7OC(COS(=O)(=O)O)C(OS(=O)(=O)O)C(OS(=O)(=O)O)C7OS(=O)(=O)O)C6OS(=O)(=O)O)C5OS(=O)(=O)O)CCC4(C)C3CCC12C [Compound 20, 3β-Cholestanyl 2,3,4,6-tetra-O-sodium sulfonato-α-D-mannopyranosyl-(1→3)-2,4,6-tri-O-sodium sulfonato-α-D-mannopyranosyl-(1→3)-2,4,6-tri-O-sodium sulfonato-α-D-mannopyranosyl-(1→2)-3,4,6-tri-O-sodium sulfonato-α-D-mannopyranoside] | 0% | 120.3% | 0.3% | 0% | 102.2% | 79.0% | 13.3% | 113 µg/mL | 88.6% | 0% | 0% | 0% | 82.6% | 78.5% | 0.3% | 93.7% | 6.8% | 0.0% |  |  |
| CC(C)CCC[C@@H](C)[C@H]1CC[C@H]2[C@@H]3CCC4CC(OCc5cn([C@@H]6O[C@H](COS(=O)(=O)[O-])[C@@H](O[C@H]7O[C@H](COS(=O)(=O)[O-])[C@@H](O[C@H]8O[C@H](COS(=O)(=O)[O-])[C@@H](OS(=O)(=O)[O-])[C@H](OS(=O)(=O)[O-])[C@H]8OS(=O)(=O)[O-])[C@H](OS(=O)(=O)[O-])[C@H]7OS(=O)(=O)[O-])[C@H](OS(=O)(=O)[O-])[C@H]6OS(=O)(=O)[O-])nn5)CC[C@]4(C)[C@H]3CC[C@]12C.[Na+].[Na+].[Na+].[Na+].[Na+].[Na+].[Na+].[Na+].[Na+].[Na+] (stereo partly drawn) [Compound 70, 4-(Cholestan-3-yl-oxymethyl)[1,2,3]triazol-1-yl 2,3,4,6-tetra-O-sodium sulfonato-α-D-glucopyranosyl-(1→4)-2,3,6-tri-O-sodium sulfonato-α-D-glucopyranosyl-(1→4)-1-deoxy-2,3,6-tri-O-sodium sulfonato-β-D-glucopyranoside] |  |  |  |  |  |  |  |  |  |  |  |  |  |  |  |  |  |  | 97% |  |
| CCCCCCCCCCCCCCCCCC(=O)NCCCO[C@@H]1O[C@H](COS(=O)(=O)[O-])[C@@H](O[C@H]2O[C@H](COS(=O)(=O)[O-])[C@@H](O[C@H]3O[C@H](COS(=O)(=O)[O-])[C@@H](O[C@H]4O[C@H](COS(=O)(=O)[O-])[C@@H](OS(=O)(=O)[O-])[C@H](OS(=O)(=O)[O-])[C@H]4OS(=O)(=O)[O-])[C@H](OS(=O)(=O)[O-])[C@H]3OS(=O)(=O)[O-])[C@H](OS(=O)(=O)[O-])[C@H]2OS(=O)(=O)[O-])[C@H](OS(=O)(=O)[O-])[C@H]1OS(=O)(=O)[O-].[Na+].[Na+].[Na+].[Na+].[Na+].[Na+].[Na+].[Na+].[Na+].[Na+].[Na+].[Na+].[Na+] [Compound 128, 3-Stearamidopropyl 2,3,4,6-tetra-O-sulfo-α-D-glucopyranosyl-(1→4)-2,3,6-tri-O-sulfo-α-D-glucopyranosyl-(1→4)-2,3,6-tri-O-sulfo-α-D-glucopyranosyl-(1→4)-2,3,6-tri-O-sulfo-β-D-glucopyranoside, tridecasodium salt] |  |  |  |  |  |  |  |  |  |  |  |  |  |  |  |  |  |  |  | 65% |
